US20070225308A1, “2-Amino Quinazoline Derivative” (Kyowa Hakko Kogyo Co.,Ltd., priority 2004, published 2007)

test system: not given; assay: not given; conditions: not given

Row | melting point [°C] | SMILES
1 | 208 to 213 | CNc1ncc2c(-c3cccc(Cl)c3)cc(-c3ccc(CCC(=O)O)cc3)c(OC)c2n1 [Compound 55, 7-[4(2-Carboxyethyl)phenyl]-5-(3-chlorophenyl)-8-methoxy-2-(methylamino)quinazoline]
2 | 258 to 261 | CNc1ncc2c(-c3cccc(Cl)c3)cc(-c3cccc(CC(=O)O)c3)c(OC)c2n1 [Compound 59, 7-[3-(Carboxymethyl)phenyl]-5-(3-chlorophenyl)-8-methoxy-2-(methylamino)quinazoline]
3 | 291 to 295 | CNc1ncc2c(-c3cccc(Cl)c3)cc(/C=C/C(=O)O)c(OC)c2n1 [Compound 95, 7-[E-(2-carboxyethenyl)]-5-(3-chlorophenyl)-8-methoxy-2-(methylamino)quinazoline]
4 | 291 to 296 | CNc1ncc2c(-c3cccc(Cl)c3)cc(-c3ccc(C(=O)O)cc3)c(O)c2n1 [Compound 112, 7-(4-Carboxyphenyl)-5-(3-chlorophenyl)-8-hydroxy-2-(methylamino)quinazoline]

target: T1, recombinant human PDE-IV (HSPDE4A) (Homo sapiens, UniProt P27815); assay: Recombinant Human PDE-IV-Inhibiting Test; assay type: biochemical; conditions: at the concentration of 0.1 μmol/L; substrate [3H]cAMP 1 μmol/L; read-out: enzyme-inhibitory activity
T1 construct: made in house; host or cells: Sf9 insect cells
T1 sequence (P27815 whole entry): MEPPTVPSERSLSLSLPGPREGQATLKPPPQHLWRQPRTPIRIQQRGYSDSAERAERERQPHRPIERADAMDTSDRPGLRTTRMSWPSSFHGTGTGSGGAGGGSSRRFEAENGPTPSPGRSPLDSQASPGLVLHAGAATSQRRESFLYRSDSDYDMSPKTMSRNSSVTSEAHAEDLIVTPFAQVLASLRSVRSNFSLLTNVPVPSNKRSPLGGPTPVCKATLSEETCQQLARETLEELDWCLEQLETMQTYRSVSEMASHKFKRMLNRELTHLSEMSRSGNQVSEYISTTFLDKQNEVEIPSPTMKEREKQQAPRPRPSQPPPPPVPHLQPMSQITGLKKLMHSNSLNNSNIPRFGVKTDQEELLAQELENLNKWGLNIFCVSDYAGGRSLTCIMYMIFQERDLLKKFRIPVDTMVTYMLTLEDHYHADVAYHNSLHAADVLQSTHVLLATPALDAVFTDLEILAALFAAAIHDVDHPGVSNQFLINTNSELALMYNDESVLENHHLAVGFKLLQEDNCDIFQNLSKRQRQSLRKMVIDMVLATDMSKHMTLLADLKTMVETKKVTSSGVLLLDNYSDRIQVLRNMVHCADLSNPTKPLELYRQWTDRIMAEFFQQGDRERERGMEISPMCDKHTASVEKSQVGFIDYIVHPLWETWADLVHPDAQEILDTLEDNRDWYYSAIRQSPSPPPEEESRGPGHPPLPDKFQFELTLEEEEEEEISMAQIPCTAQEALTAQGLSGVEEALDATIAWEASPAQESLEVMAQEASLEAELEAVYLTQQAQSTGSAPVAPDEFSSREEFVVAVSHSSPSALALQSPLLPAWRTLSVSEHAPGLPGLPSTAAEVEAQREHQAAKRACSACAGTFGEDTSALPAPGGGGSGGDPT
Procedure: Recombinant Human PDE-IV-Inhibiting Test
A human PDE cDNA (HSPDE4A) was isolated from HL-60 cells. An expected amino acid sequence thereof is the same as the sequence (HSPDE4A4) reported by Bolger G., et al (Mol. Cell. Biol., 1993, Vol. 13, p. 6558). The recombinant protein was expressed, using Sf9 insect cells. The PDE activity was measured according to the following two-step process, based on the method by Kincid R. L. and Manganiello V. C. (Method. Enzymol., 1988, Vol. 159, p. 457). [^3H]cAMP (final concentration: 1 μmol/L) was used as the substrate. The reaction was performed in a standard, mixture containing N,N-bis(2-hydroxyethyl)-2-aminoethanesulfonic acid (50 mmol/L, pH 7.2), magnesium chloride (1 mmol/L) and soybean trypsin inhibitor (0.1 mg/mL). The reaction was started by the addition of enzyme, and the reaction mixture was incubated at 30° C. for 10 to 30 minutes. The reaction was stopped by hydrochloric acid, and the formed 5′-AMP was completely decomposed by 5′-nucleotidase. The resulting mixture was treated with chromatography of DEAE-Sephadex A-25, and the eluted [^3H]adenosine was counted with a scintillation counter. The test compounds were dissolved in DMSO, and added to the system (concentration 1.7%).

Row | inhibition at 0.1 µM [%] | SMILES
5 | ≥ 50 | COc1c(-c2ccc(C(=O)O)cc2)cc(-c2cccc([N+](=O)[O-])c2)c2cnc(N)nc12 [Compound 12, 2-Amino-7-(4-carboxyphenyl)-8-methoxy-5-(3-nitrophenyl)quinazoline]
6 | ≥ 50 | COc1c(-c2ccc(C(=O)O)cc2)cc(-c2cccc(Cl)c2)c2cnc(N)nc12 [Compound 13, 2-Amino-7-(4-carboxyphenyl)-5-(3-chlorophenyl)-8-methoxyquinazoline]
7 | ≥ 50 | COc1c(-c2ccc(C(=O)O)cc2)cc(-c2cccc([N+](=O)[O-])c2)c2cnc(N(C)C)nc12 [Compound 14, 7-(4-Carboxyphenyl)-2-dimethylamino-8-methoxy-5-(3-nitrophenyl)quinazoline]
8 | ≥ 50 | COc1c(-c2ccc(C(=O)O)cc2)cc(-c2cccc(Cl)c2)c2cnc(N(C)C)nc12 [Compound 15, 7-(4-Carboxyphenyl)-5-(3-chlorophenyl)-2-dimethylamino-8-methoxyquinazoline]
9 | ≥ 50 | CNc1ncc2c(-c3cccc(Cl)c3)cc(-c3ccc(C(=O)O)cc3)c(OC)c2n1 [Compound 18, 7-(4-Carboxyphenyl)-5-(3-chlorophenyl)-8-methoxy-2-(methylamino)quinazoline]
10 | ≥ 50 | CNc1ncc2c(-c3cccc(C#N)c3)cc(-c3ccc(C(=O)O)cc3)c(OC)c2n1 [Compound 19, 7-(4-Carboxyphenyl)-5-(3-cyanophenyl)-8-methoxy-2-(methylamino)quinazoline]
11 | ≥ 50 | CNc1ncc2c(-c3cncc(Cl)c3)cc(-c3ccc(C(=O)O)cc3)c(OC)c2n1 [Compound 20, 7-(4-Carboxyphenyl)-5-(5-chloropyridine-3-yl)-8-methoxy-2-(methylamino)quinazoline]
12 | ≥ 50 | CNc1ncc2c(-c3cccc(Cl)c3)cc(CCC(=O)O)c(OC)c2n1 [Compound 35, 7-(2-Carboxyethyl)-5-(3-chlorophenyl)-8-methoxy-2-(methylamino)quinazoline]
13 | ≥ 50 | COc1c(-c2cccc(C(=O)O)c2)cc(-c2cccc(Cl)c2)c2cnc(N(C)C)nc12 [Compound 37, 7-(3-Carboxyphenyl)-5-(3-chlorophenyl)-2-dimethylamino-8-methoxyquinazoline]

Row | SMILES | inhibition at 0.1 µM [%]
14 | COc1c(C2=CCNCC2)cc(-c2cccc(Cl)c2)c2cnc(N(C)C)nc12 [Compound 43, 5-(3-Chlorophenyl)-2-dimethylamino-8-methoxy-7-(1,2,5,6-tetrahydropyridine-4-yl)quinazoline] | ≥ 50
